Measurements as given in patent US9169290B2, “Peptides and their use” (priority 2007, dated 2015).
Values after ≈ are worked out from the molar mass of the structure shown. Like-named read-outs stand apart in the source and are kept apart here. Blank lines part the entries; values can stand above or below the compound they belong to. Ends that are not written are not given here. Peptide text beside a SMILES is read from it.

How the values were obtained:
[1] = test system: C. albicans; format: cell-based, Candida albicans
Description: (§1) Broth Dilution Antifungal Susceptibility Testing
(§2) The sensitivity of relevant fungal strains to the peptides was determined using Clinical Laboratory Standard Institute (CLSI; formerly NCCLS) Approved Standards.

[2] = test system: Trichophyton rubrum; format: cell-based
Description: as §1, §2

[3] = test system: C. krusei; format: cell-based, Candida krusei
Description: as §1, §2

[4] = test system: C. parapsilosis; format: cell-based, Candida parapsilosis
Description: as §1
The sensitivity of relevant fungal strains to the peptides was determined using Clinical Laboratory Standard Institute (CLSI; formerly NCCLS) Approved Standards. Fungal susceptibility was tested using “Reference Method for Broth Dilution Antifungal Susceptibility Testing of Filamentous Fungi; […];

[5] = test system: Malasezzia furfur; format: cell-based
Description: as §1, §2

[6] = test system: C. tropicalis; assay: Broth dilution antifungal susceptibility testing of yeasts (CLSI M27-A), MIC; format: cell-based, Candida tropicalis; settings: C. tropicalis strain ATCC750
Description: as §1
The sensitivity of relevant fungal strains to the peptides was determined using Clinical Laboratory Standard Institute (CLSI; formerly NCCLS) Approved Standards. Fungal susceptibility was tested using “Reference Method for Broth Dilution Antifungal Susceptibility Testing of Filamentous Fungi; Approved Standard M38-P”, and yeast susceptibility was tested using “Reference Method for Broth Dilution Antifungal Susceptibility Testing of Yeasts; Approved Standard—Second Edition M27-A”.

[7] = Candida spp. Type Strains MIC Data table, strain NCPF3953
[8] = C. parapsilosis strain ATCC22019
[9] = Malasezzia furfur strain DSM6170
[10] = C. parapsilosis strain ATCC90018

Compound: CC(C)[C@H](NC(=O)[C@H](CCCNC(=N)N)NC(=O)[C@H](CCCNC(=N)N)NC(=O)[C@H](CCCNC(=N)N)NC(=O)[C@@H](N)CCCNC(=N)N)C(=O)N[C@H](C(=O)N[C@@H](CCCNC(=N)N)C(=O)N[C@@H](CCCNC(=N)N)C(=O)N[C@@H](CCCNC(=N)N)C(=O)N[C@@H](CCCNC(=N)N)C(=O)O)C(C)C [NP310]
MIC, Candida albicans NCTC3179 [1]: >2000 µM | MIC [2]: >2 µM

Compound: N=C(N)NCCC[C@H](NC(=O)[C@H](CCCNC(=N)N)NC(=O)[C@H](CCCNC(=N)N)NC(=O)[C@H](CCCNC(=N)N)NC(=O)[C@H](CCCNC(=N)N)NC(=O)[C@H](CCCNC(=N)N)NC(=O)[C@H](CCCNC(=N)N)NC(=O)[C@H](CCCNC(=N)N)NC(=O)[C@H](CCCNC(=N)N)NC(=O)[C@H](CCCNC(=N)N)NC(=O)[C@@H](N)CCCNC(=N)N)C(=O)O [NP317]
MIC, Candida albicans NCTC3179 [1]: 512 µM (≈ 889 µg/mL) | MIC, Candida krusei NCPF3953 [3]: 32 µM (≈ 55.6 µg/mL) | MIC [4]: 256 µM (≈ 444 µg/mL) | MIC [5]: <15.6 µM | MIC [2]: 0.25 µM (≈ 0.434 µg/mL)

Compound: N=C(N)NCCC[C@H](NC(=O)[C@H](CCCNC(=N)N)NC(=O)[C@H](CCCNC(=N)N)NC(=O)[C@H](CCCNC(=N)N)NC(=O)[C@H](CCCNC(=N)N)NC(=O)[C@H](CCCNC(=N)N)NC(=O)[C@H](CCCNC(=N)N)NC(=O)[C@H](CCCNC(=N)N)NC(=O)[C@H](CCCNC(=N)N)NC(=O)[C@H](CCCNC(=N)N)NC(=O)[C@H](CCCNC(=N)N)NC(=O)[C@H](CCCNC(=N)N)NC(=O)[C@@H](N)CCCNC(=N)N)C(=O)O [NP318]
MIC, Candida albicans NCTC3179 [1]: 4 µM (≈ 8.19 µg/mL) | MIC ([3]; C. krusei strain ATCC6258): <16 µM | MIC ([3]; C. krusei strain NCPF3953): 8 µM (≈ 16.4 µg/mL) | MIC, Candida krusei NCPF3953 [3, 7]: 8 µM (≈ 16.4 µg/mL) | MIC [4, 8]: 256 µM (≈ 524 µg/mL) | MIC [5, 9]: 62.5 µM (≈ 128 µg/mL) | MIC ([2]; Trichophyton rubrum strain NCPF118): >2 µM

Compound: N=C(N)NCCC[C@H](NC(=O)[C@H](CCCNC(=N)N)NC(=O)[C@H](CCCNC(=N)N)NC(=O)[C@H](CCCNC(=N)N)NC(=O)[C@H](CCCNC(=N)N)NC(=O)[C@H](CCCNC(=N)N)NC(=O)[C@H](CCCNC(=N)N)NC(=O)[C@H](CCCNC(=N)N)NC(=O)[C@H](CCCNC(=N)N)NC(=O)[C@H](CCCNC(=N)N)NC(=O)[C@H](CCCNC(=N)N)NC(=O)[C@H](CCCNC(=N)N)NC(=O)[C@@H](N)CCCNC(=N)N)C(=O)O [NP337]
MIC, Candida albicans ATCC24433 [1]: 2 µM (≈ 4.1 µg/mL) | MIC, Candida albicans ATCC90028 [1]: 4 µM (≈ 8.19 µg/mL) | MIC, Candida albicans NCTC3179 [1]: 2 µM (≈ 4.1 µg/mL) | MIC ([3]; C. krusei strain ATCC6258): 2 µM (≈ 4.1 µg/mL) | MIC ([3]; C. krusei strain NCPF3953): 16 µM (≈ 32.8 µg/mL) | MIC, Candida krusei NCPF3953 [3, 7]: 16 µM (≈ 32.8 µg/mL) | MIC [4, 8]: 32 µM (≈ 65.6 µg/mL) | MIC [4, 10]: 128 µM (≈ 262 µg/mL) | MIC [6]: 2 µM (≈ 4.1 µg/mL) | MIC [5, 9]: 31.25 µM (≈ 64 µg/mL)

Compound: CC(=O)N[C@@H](CCCNC(=N)N)C(=O)N[C@@H](CCCNC(=N)N)C(=O)N[C@@H](CCCNC(=N)N)C(=O)N[C@@H](CCCNC(=N)N)C(=O)N[C@@H](CCCNC(=N)N)C(=O)N[C@@H](CCCNC(=N)N)C(=O)N[C@@H](CCCNC(=N)N)C(=O)N[C@@H](CCCNC(=N)N)C(=O)N[C@@H](CCCNC(=N)N)C(=O)N[C@@H](CCCNC(=N)N)C(=O)N[C@@H](CCCNC(=N)N)C(=O)N[C@@H](CCCNC(=N)N)C(=O)N[C@@H](CCCNC(=N)N)C(N)=O [NP338]
MIC, Candida albicans ATCC24433 [1]: 2 µM (≈ 4.18 µg/mL) | MIC, Candida albicans ATCC90028 [1]: 4 µM (≈ 8.36 µg/mL) | MIC, Candida albicans NCTC3179 [1]: 2 µM (≈ 4.18 µg/mL) | MIC ([3]; C. krusei strain ATCC6258): 2 µM (≈ 4.18 µg/mL) | MIC ([3]; C. krusei strain NCPF3953): 8 µM (≈ 16.7 µg/mL) | MIC, Candida krusei NCPF3953 [3, 7]: 8 µM (≈ 16.7 µg/mL) | MIC [4, 8]: 8 µM (≈ 16.7 µg/mL) | MIC [4, 10]: 128 µM (≈ 267 µg/mL) | MIC [6]: 2 µM (≈ 4.18 µg/mL) | MIC [5, 9]: <15.6 µM

Compound: CC(=O)N[C@H](CCCNC(=N)N)C(=O)N[C@H](CCCNC(=N)N)C(=O)N[C@H](CCCNC(=N)N)C(=O)N[C@H](CCCNC(=N)N)C(=O)N[C@H](CCCNC(=N)N)C(=O)N[C@H](CCCNC(=N)N)C(=O)N[C@H](CCCNC(=N)N)C(=O)N[C@H](CCCNC(=N)N)C(=O)N[C@H](CCCNC(=N)N)C(=O)N[C@H](CCCNC(=N)N)C(=O)N[C@H](CCCNC(=N)N)C(=O)N[C@H](CCCNC(=N)N)C(=O)N[C@H](CCCNC(=N)N)C(N)=O [NP340, Ac-dRdRdRdRdRdRdRdRdRdRdRdRdR-NH2]
MIC, Candida albicans ATCC90028 [1]: 2 µM (≈ 4.18 µg/mL) | MIC ([3]; C. krusei strain ATCC6258): 4 µM (≈ 8.36 µg/mL) | MIC [4, 8]: 2 µM (≈ 4.18 µg/mL) | MIC [4, 10]: 2 µM (≈ 4.18 µg/mL) | MIC [6]: 2 µM (≈ 4.18 µg/mL)

Compound: N=C(N)NCCC[C@H](NC(=O)[C@H](CCCNC(=N)N)NC(=O)[C@H](CCCNC(=N)N)NC(=O)[C@H](CCCNC(=N)N)NC(=O)[C@H](CCCNC(=N)N)NC(=O)[C@H](CCCNC(=N)N)NC(=O)[C@H](CCCNC(=N)N)NC(=O)[C@H](CCCNC(=N)N)NC(=O)[C@H](CCCNC(=N)N)NC(=O)[C@H](CCCNC(=N)N)NC(=O)[C@H](CCCNC(=N)N)NC(=O)[C@H](CCCNC(=N)N)NC(=O)[C@@H](N)CCCNC(=N)N)C(=O)O [NP351]
MIC [1]: 4 µM (≈ 8.19 µg/mL) | MIC ([3]; C. krusei strain NCPF3953): 32 µM (≈ 65.6 µg/mL)

Compound: GKKEKPEKKVKK [NP331]
MIC, Candida albicans NCTC3179 [1]: >2000 µM

Compound: ILRWPWWPWRRK-NH2 [NP354]
MIC ([3]; C. krusei strain NCPF3953): >2048 µM

Compound: KKKDKVKK [NP334]
MIC, Candida albicans NCTC3179 [1]: >2000 µM

Compound: KKKKKEGKKQEKMLD [NP333]
MIC, Candida albicans NCTC3179 [1]: >2000 µM

Compound: KKKKKKKKK [NP345]
MIC [1]: >2048 µM

Compound: KKKKKKKKKKKKK [NP347]
MIC ([1]; C. albicans strain NCTC3179): >2048 µM

Compound: KKKKKKKKKKKKKKK [NP348]
MIC ([1]; C. albicans strain NCTC3179): >2048 µM

Compound: KLTKPKPQAESKKKKK [NP332]
MIC, Candida albicans NCTC3179 [1]: >2000 µM

Second part, the compound after the results:

MIC [1]: 64 µM (≈ 111 µg/mL) | MIC [3]: 8 µM (≈ 13.9 µg/mL)
Compound: N=C(N)NCCC[C@H](NC(=O)[C@H](CCCNC(=N)N)NC(=O)[C@H](CCCNC(=N)N)NC(=O)[C@H](CCCNC(=N)N)NC(=O)[C@H](CCCNC(=N)N)NC(=O)[C@H](CCCNC(=N)N)NC(=O)[C@H](CCCNC(=N)N)NC(=O)[C@H](CCCNC(=N)N)NC(=O)[C@H](CCCNC(=N)N)NC(=O)[C@H](CCCNC(=N)N)NC(=O)[C@@H](N)CCCNC(=N)N)C(=O)O [NP350]

MIC [1]: >2048 µM
Compound: N=C(N)NCCC[C@H](NC(=O)[C@H](CCCNC(=N)N)NC(=O)[C@@H](N)CCCNC(=N)N)C(=O)O [NP356, RRR] (H-Arg-Arg-Arg-OH; N-terminus and C-terminus assumed)

MIC [1]: >2048 µM
Compound: N=C(N)NCCC[C@H](NC(=O)[C@H](CCCNC(=N)N)NC(=O)[C@H](CCCNC(=N)N)NC(=O)[C@H](CCCNC(=N)N)NC(=O)[C@H](CCCNC(=N)N)NC(=O)[C@H](CCCNC(=N)N)NC(=O)[C@@H](N)CCCNC(=N)N)C(=O)O [NP358, RRRRRRR]

MIC [1]: >2048 µM
Compound: KKKKK [NP343, KKKKK]

MIC [1]: >2048 µM
Compound: KKKKKKK [NP344, KKKKKKK]

MIC [1]: >2048 µM
Compound: KKKKKKKKKKK [NP346]

MIC, Candida albicans NCTC3179 [1]: >2000 µM
Compound: KVRQGTLKKAR [NP335]
